Calls of active or inactive are those of the source.
Assays:
[1] = NIH-3T3 fibroblast cytotoxicity, dose response, cytotoxicity control, cell-based, fluorescence, Alamar Blue, secondary assay (AID 2327); type: functional;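 also: NIH-3T3 mouse fibroblasts cultured with fluconazole at 8 µg/mL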
[2] = target: T1, Rac GTPase-activating protein 1 (Homo sapiens, UniProt Q9H0H5); test: MgcRacGAP GTPase-activating activity inhibitors, confirmation, biochemical, ADP Hunter fluorescence, primary and confirmatory (AID 624330); type: functional
T1 sequence (Q9H0H5 whole entry): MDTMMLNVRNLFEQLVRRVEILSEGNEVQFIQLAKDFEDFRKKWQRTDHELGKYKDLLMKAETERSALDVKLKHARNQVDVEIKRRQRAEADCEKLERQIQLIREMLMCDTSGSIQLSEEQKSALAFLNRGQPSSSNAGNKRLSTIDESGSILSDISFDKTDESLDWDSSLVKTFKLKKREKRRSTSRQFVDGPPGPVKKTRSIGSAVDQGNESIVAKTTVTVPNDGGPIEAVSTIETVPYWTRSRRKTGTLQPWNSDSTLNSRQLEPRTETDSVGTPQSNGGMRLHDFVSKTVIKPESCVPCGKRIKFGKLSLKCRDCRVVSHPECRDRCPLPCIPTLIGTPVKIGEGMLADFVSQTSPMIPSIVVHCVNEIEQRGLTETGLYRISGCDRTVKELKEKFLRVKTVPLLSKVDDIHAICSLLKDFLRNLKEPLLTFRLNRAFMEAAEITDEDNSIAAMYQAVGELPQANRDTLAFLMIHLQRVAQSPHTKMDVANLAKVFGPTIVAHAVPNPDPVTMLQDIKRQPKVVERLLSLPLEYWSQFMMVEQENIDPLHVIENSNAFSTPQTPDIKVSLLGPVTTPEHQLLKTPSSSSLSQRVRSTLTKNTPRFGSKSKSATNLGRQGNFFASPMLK

[3] = target: T2, Corticotropin-releasing factor receptor 2/Corticotropin-releasing factor-binding protein (Homo sapiens, UniProt P24387+Q13324); test: activators of CRF receptor 2 with binding protein – uHTS hits, confirmation (AID 602473); type: functional; conditions: read-out: EC50_Mean
T2 sequence (Q13324 whole entry): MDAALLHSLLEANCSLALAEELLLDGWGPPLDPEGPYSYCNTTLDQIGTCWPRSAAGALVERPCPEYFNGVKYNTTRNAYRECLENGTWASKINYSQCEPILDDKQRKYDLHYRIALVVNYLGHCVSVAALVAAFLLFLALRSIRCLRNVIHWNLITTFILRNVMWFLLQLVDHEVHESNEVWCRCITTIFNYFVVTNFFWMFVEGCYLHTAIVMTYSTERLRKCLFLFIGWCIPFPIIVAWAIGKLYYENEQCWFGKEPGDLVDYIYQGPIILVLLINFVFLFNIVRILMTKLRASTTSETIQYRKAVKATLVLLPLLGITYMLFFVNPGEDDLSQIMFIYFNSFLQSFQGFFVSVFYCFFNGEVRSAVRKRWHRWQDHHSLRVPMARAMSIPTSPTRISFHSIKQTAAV
T2 sequence (P24387 whole entry): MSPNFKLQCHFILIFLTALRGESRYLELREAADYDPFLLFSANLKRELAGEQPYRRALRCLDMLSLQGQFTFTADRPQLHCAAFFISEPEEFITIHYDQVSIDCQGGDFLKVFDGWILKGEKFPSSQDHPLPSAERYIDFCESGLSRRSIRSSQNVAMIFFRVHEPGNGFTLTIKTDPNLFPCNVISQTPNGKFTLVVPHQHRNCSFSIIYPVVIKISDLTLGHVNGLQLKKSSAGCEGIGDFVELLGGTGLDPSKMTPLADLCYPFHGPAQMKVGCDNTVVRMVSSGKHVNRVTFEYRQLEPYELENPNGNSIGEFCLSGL

[4] = target: T2, Corticotropin-releasing factor receptor 2/Corticotropin-releasing factor-binding protein; test: Dose Response confirmation of uHTS hits for small molecule antagonists of the CRF-binding protein and CRF-R2 receptor complex.; type: functional; conditions: read-out: IC50_Mean
[5] = cells; type: functional
[6] = system: Streptococcus sp. 'group A'; test: growth inhibition of control SK(-) GAS strain, dose response, counter-screen for streptokinase expression inhibitor project, luminescence, kanamycin, BacTiterGlo, confirmation (AID 1900); type: functional, organism-based
[7] = system: Streptococcus; test: Group A Streptococcus viability loss, dose response, counter-screen for streptokinase expression inhibitor project, luminescence, BacTiterGlo (AID 1915); type: functional, organism-based;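 also: potency for reduction of bacterial viability or growth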
[8] = target: T3, Streptokinase A (Streptococcus pyogenes serotype M1, UniProt P10520); test: S. pyogenes streptokinase expression inhibitors, potency, dose response, plasminogen activation absorbance, OD405 (AID 1914); type: functional, Streptococcus pyogenes M1 GAS;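 also: secreted streptokinase activity via plasminogen activation per viability signal from cell pellet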
T3 sequence (P10520 whole entry): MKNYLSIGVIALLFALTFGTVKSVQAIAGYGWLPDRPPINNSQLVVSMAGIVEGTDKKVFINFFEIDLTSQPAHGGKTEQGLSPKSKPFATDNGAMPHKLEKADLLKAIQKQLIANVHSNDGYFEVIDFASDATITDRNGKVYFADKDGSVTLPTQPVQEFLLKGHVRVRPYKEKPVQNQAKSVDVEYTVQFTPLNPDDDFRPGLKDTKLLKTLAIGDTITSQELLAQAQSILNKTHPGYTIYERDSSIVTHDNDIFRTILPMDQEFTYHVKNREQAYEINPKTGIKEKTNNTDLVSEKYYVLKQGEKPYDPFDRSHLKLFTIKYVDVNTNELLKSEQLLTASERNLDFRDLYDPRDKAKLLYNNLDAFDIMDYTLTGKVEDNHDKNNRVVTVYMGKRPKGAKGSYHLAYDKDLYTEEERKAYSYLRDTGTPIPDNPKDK

[9] = target: T4, Replicative DNA helicase DnaB (Mycobacterium tuberculosis, UniProt P9WMR3); test: DnaB intein splicing inhibitors, dose response, biochemical, cell-free fluorescence (AID 449749); type: functional
T4 sequence (P9WMR3 whole entry): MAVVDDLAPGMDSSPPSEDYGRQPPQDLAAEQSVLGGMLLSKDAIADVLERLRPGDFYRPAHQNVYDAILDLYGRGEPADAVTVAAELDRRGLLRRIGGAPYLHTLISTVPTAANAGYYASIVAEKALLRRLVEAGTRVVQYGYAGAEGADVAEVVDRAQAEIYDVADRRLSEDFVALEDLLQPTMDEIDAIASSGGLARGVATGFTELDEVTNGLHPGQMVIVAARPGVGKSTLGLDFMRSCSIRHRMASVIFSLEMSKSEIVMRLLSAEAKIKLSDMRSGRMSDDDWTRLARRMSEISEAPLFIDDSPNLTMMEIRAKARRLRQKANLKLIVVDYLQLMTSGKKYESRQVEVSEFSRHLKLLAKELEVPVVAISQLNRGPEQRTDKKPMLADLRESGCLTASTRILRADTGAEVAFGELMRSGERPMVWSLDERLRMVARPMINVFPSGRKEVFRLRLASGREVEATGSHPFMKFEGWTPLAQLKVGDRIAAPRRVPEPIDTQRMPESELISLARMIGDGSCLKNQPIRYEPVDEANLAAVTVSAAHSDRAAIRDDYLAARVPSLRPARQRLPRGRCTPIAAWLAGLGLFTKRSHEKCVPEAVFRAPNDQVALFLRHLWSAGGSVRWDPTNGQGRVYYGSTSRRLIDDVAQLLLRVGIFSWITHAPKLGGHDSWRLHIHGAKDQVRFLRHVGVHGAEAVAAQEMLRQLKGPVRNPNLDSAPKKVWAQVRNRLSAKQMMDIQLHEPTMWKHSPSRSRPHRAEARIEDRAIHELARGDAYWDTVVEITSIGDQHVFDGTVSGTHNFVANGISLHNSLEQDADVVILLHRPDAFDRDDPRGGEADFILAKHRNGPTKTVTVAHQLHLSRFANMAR

[10] = target: T5, Protein RecA (Mycobacterium tuberculosis, UniProt P9WHJ3); test: Fluorescence Cell-Free Homogeneous Dose Retest to Identify Inhibitors of RecA-Intein Splicing Activity. [Related pubchem assays (depositor defined):AID2097, AID2223, AID489010, AID492950]; type: functional
T5 sequence (P9WHJ3 whole entry): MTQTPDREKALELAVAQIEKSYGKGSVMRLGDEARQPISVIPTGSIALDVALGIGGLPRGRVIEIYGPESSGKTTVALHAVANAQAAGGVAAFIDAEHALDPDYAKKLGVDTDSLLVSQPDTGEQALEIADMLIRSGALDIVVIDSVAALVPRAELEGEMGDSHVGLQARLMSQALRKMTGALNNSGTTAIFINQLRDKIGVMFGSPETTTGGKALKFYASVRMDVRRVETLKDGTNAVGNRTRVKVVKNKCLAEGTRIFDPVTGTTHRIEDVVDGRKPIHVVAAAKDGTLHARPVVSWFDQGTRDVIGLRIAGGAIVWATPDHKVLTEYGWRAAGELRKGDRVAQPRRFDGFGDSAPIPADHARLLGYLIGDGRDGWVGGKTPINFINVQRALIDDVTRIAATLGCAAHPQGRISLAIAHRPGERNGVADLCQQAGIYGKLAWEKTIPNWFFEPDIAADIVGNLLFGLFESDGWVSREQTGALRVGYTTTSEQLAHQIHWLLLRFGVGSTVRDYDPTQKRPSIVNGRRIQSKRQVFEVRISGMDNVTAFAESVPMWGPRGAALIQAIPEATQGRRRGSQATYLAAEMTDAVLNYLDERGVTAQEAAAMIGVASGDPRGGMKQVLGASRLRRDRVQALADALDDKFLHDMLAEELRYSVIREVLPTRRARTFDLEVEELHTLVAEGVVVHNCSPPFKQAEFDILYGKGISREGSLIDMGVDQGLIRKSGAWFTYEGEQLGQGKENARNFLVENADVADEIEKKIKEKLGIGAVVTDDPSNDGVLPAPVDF

[11] = P. falciparum Dd2 growth inhibitors, dose response, SYBR Green, cherry-picked samples (AID 1159567); type: functional, cell-based

## Cn1c(SCC(=O)N2CCCc3ccccc32)nnc1-c1ccccc1
[1]
  EC50: > 160 µM (inactive)

## Cc1ccccc1OCCN1CCCC1
[2]
  IC50: 176 µM (active)

## N#C/C(=C\c1ccc(N2CCOCC2)o1)c1ccccc1
[2]
  IC50: 47.1 µM (active)

## CSc1ccc(CCNC(=O)c2ccc(C[S+]([O-])Cc3ccc(Cl)cc3)o2)cc1 (centres undefined)
[3]
  EC50: > 53 µM (inactive)
[4]
  IC50: > 47.1 µM (inactive)

## O=C(Nc1ccn(Cc2ccccc2)n1)c1ccc(F)cc1
[5]
  IC50: > 50 µM (active)

## COc1ccc(NC(=O)C(=O)NNC(=O)C(C)Oc2ccc(Cl)cc2Cl)cc1 (centres undefined)
[5]
  IC50: 6.02 µM (active)
[6]
  EC50: 4.84 µM (active)
[7]
  EC50: 18.5 µM (active)
[8]
  EC50: > 150 µM (not active)

## CC(C)CSc1nnc2[nH]c(=O)cc(N)n12
[3]
  EC50: > 53 µM (inactive)
[4]
  IC50: > 47.1 µM (inactive)

## CCOC(=O)c1sc(NC(=O)CN(CC(C)C)CC(C)C)c(C(=O)OCC)c1C
[3]
  EC50: > 53 µM (inactive)
[4]
  IC50: > 47.1 µM (inactive)

## Cc1ccc(C(C)C)c(OCC(=O)OCc2c(C)noc2C)c1
[5]
  IC50: 5.76 µM (active)

## COc1cc2c(cc1OC)C(/C=C(\O)c1ccc(OC)c([N+](=O)[O-])c1)=NCC2
[3]
  EC50: > 53 µM (inactive)
[4]
  IC50: > 47.1 µM (inactive)

## Cc1ccc(NCCC(=O)c2cccs2)cc1
[5]
  IC50: 10.5 µM (active)

## CN(C)c1ccc(NC(=O)CN2C(=O)c3ccccc3C2=O)cc1
[2]
  IC50: 73.7 µM (active)

## CCOc1cc(/C=C2\SC(N3CCCC(C)C3)=NC2=O)ccc1O (centres undefined)
[2]
  IC50: 26.9 µM (active)

## CSc1ccc(/C=C(/NC(=O)c2ccc(C)cc2)C(=O)Nc2cccc(F)c2)cc1
[3]
  EC50: > 53 µM (inactive)
[4]
  IC50: > 47.1 µM (inactive)

## Cc1ccc(NC(=O)COCC(=O)Nc2ccc(C)cc2)cc1
[5]
  IC50: 22.8 µM (active)

## O=C(OCC(=O)N1CCCc2ccccc21)c1ccc(S(=O)(=O)C(F)F)cc1
[5]
  IC50: 23.3 µM (active)

## COC(=O)c1ccc(N2CCN(CCNC(=O)Nc3ccc(OC)cc3)CC2)cc1
[5]
  IC50: 22.5 µM (active)

## COc1ccc(CNCC(=O)Nc2cc(OC)cc(OC)c2)cc1
[2]
  IC50: 123 µM (active)

## COc1cc(OC)c(OC)cc1CN1CCN(Cc2ccc(SC)cc2)CC1
[2]
  IC50: 66.9 µM (active)

## CN(CC(=O)Nc1ccc2c(c1)OCCO2)CC(=O)Nc1ccc(F)c(F)c1F
[3]
  EC50: > 53 µM (inactive)
[4]
  IC50: > 47.1 µM (inactive)

## COc1ccc(CC(=O)O/N=C(\N)Cc2cccc3ccccc23)cc1OC
[9]
  AC50: 73.3 µM (active)
[10]
  EC50: 18.2 µM (active)

## CCOC(=O)Cn1c(=O)oc2cc(S(=O)(=O)NC(C)(C)CC)ccc21
[3]
  EC50: > 53 µM (inactive)
[4]
  IC50: > 47.1 µM (inactive)

## CC(=O)N1CCOc2cc(S(=O)(=O)N3CCN(c4ccccc4)CC3)c(Cl)cc21
[3]
  EC50: > 53 µM (inactive)
[4]
  IC50: > 47.1 µM (inactive)

## CCOC(=O)N/N=C/c1ccc(N(CC)CC)cc1O
[2]
  IC50: 78.5 µM (active)

## COc1ccc(-c2ccc(/C=N/NC(=O)Cc3nnc(N)s3)o2)cc1Cl
[3]
  EC50: > 53 µM (inactive)
[4]
  IC50: > 47.1 µM (inactive)

## CCc1cc(/C(Cc2ccccn2)=N\O)c(O)cc1O
[2]
  IC50: 31.6 µM (active)

## COc1ccc(NC(=O)N(C)C[C@H]2Oc3cc(-c4ccc(C)cc4)ccc3S(=O)(=O)N([C@H](C)CO)C[C@@H]2C)cc1
[11]
  AC50: 4.83 µM (active)

## C[C@H](CO)N1C[C@H](C)[C@@H](CN(C)C(=O)Nc2cccc3ccccc23)Oc2ccc(NC(=O)Nc3cccc4ccccc34)cc2CC1=O
[11]
  AC50: 5.57 µM (active)

## C[C@H](CO)N1C[C@H](C)[C@H](CN(C)CC2CC2)Oc2cc(-c3cccc(C#N)c3)ccc2S1(=O)=O
[11]
  AC50: 3.61 µM (active)

## COc1ccc(C#Cc2ccc([C@H]3[C@H]4CN(C(=O)c5ccc(F)cc5)CC(=O)N4[C@H]3CO)cc2)cc1
[11]
  AC50: 6.95 µM (active)

## CCCC#Cc1ccc2c(c1)O[C@H](CN(C)C(=O)c1ccccc1F)[C@@H](C)CN([C@H](C)CO)S2(=O)=O
[11]
  AC50: 4.94 µM (active)

Source: ChEMBL document CHEMBL1201862, “PubChem BioAssay data set” (2004)
